Measurements as given in the NIST ThermoML archive (doi:10.1021/je049848j).
± gives the expanded uncertainty stated by the source.

assay: not given; conditions: 293 K; 101.33 kPa; Liquid; Vibrating tube method

Row | Compound | mass density [kg/m3]
1 | CC(=O)O [acetic acid] | 1049.5 ± 0.5
2 | Cc1ccccc1 [toluene] | 867.3 ± 0.5
3 | CC(=O)OC1CCCCC1 [cyclohexyl ethanoate] | 969.2 ± 0.9
4 | CCC(=O)O [propanoic acid] | 992.5 ± 0.5
5 | CCCCCO [pentan-1-ol] | 814 ± 0.5

same assay, conditions: Liquid; Fischer boiling apparatus

Row | Compound | Normal boiling temperature [°C]
6 | CC(=O)O [acetic acid] | 117.70 ± 0.2
7 | Cc1ccccc1 [toluene] | 110.30 ± 0.2
8 | CC(=O)OC1CCCCC1 [cyclohexyl ethanoate] | 172.60 ± 0.2
9 | CCC(=O)O [propanoic acid] | 140.90 ± 0.2
10 | CCCCCO [pentan-1-ol] | 138.00 ± 0.2

assay: refractive index (Na D-line) (dimensionless); conditions: 293 K; 101.33 kPa; Liquid; Standard Abbe refractometry

Row | Compound | refractive index
11 | CC(=O)O [acetic acid] | 1.372 ± 0.0011
12 | Cc1ccccc1 [toluene] | 1.496 ± 0.0011
13 | CC(=O)OC1CCCCC1 [cyclohexyl ethanoate] | 1.4398 ± 0.0011
14 | CCC(=O)O [propanoic acid] | 1.3811 ± 0.0011
15 | CCCCCO [pentan-1-ol] | 1.4104 ± 0.0011
